Test system: quadruplex RNA F-EBNA1-T
Experiment: FRET-melting assay
Format: binding, Epstein-Barr virus
Conditions: for ΔTm, ligand + 3 μM ds26 / ΔTm, ligand + 10 μM ds26 / ΔTm, ligand alone: F-EBNA1-T 0.2 μM, ligand 1.0 μM, K+10 buffer; for ΔTm, ligand + 3 μM ds26: competitor DNA ds26 3 μM (15 eq); for ΔTm, ligand + 10 μM ds26: competitor DNA ds26 10 μM (50 eq); for ΔTm, ligand alone: no competitor; for affinity for the G-quadruplex structure of EBNA1 (in words, FRET-melting data): conclusion from Table 2
Description: The FRET-melting assay is based on thermal denaturation of G4-ARN monitored by fluorescence due to the phenomenon of Förster Resonance Energy Transfer (FRET). This method uses quadruplex-forming RNA sequence dual-labeled with two different fluorophores: a donor (fluorescein, or FAM) and an acceptor (tetramethylrhodamine, or TAMRA). When RNA is folded into G-quadruplex (G4) structure, fluorescence of the donor fluorophore is weak due to strong energy transfer (FRET) to the neighboring acceptor fluorophore. Upon thermal denaturation, the quadruplex unfolds and the fluorophores are separated, leading to decrease of the FRET effect and increase of the fluorescence of the donor (see FIG. 2). By following the fluorescence of the donor as a function of temperature, a melting curve of the G-quadruplex RNA can be obtained, which allows determining the temperature of denaturation at which 50% of the quadruples is unfolded (T1, FIG. 3).
The FRET-melting assay allows assessing the affinity of small molecules (ligands) for the G4-RNA. The addition of a G4-ligand stabilizes the G-quadruplex structure and increases the denaturation temperature. The temperature of denaturation in the presence of ligands (T2) can be compared with that obtained in the absence of ligands (T1). The value of ΔTm (ΔTm=T2−T1) represents a measure of the affinity of the compounds of the invention (ligand). Generally, values of ΔTm>20° C. correspond to ligands of high affinity.
The dual-labeled oligoribonucleotide EBNA1 [5′-FAM-r(GGGGCAGGAGCAGGAGGA)-TAMRA-3′] (SEQ ID no 2) purified by reversed-phase HPLC was purchased from Eurogentec. The donor fluorophore was 6-carboxyfluorescein (FAM) and the acceptor fluorophore was 6-carboxytetramethylrhodamine (TAMRA).
Stock solutions of the ligands (2 mM in DMSO) were used for FRET-melting assay, unless otherwise stated, and were stored at −20° C. FRET-melting measurements are performed on 7900HT Fast Real-Time PCR System (Applied Biosystems) with Microamp Fast optical 96-well reaction plate (Applied Biosystems).
Preparation of Oligonucleotides For FRET-melting assay, oligoribonucleotide F-EBNA1-T was dissolved in K^+10 buffer (10 mM lithium cacodylate buffer, pH 7.3, supplemented with 10 mM KCl and 90 mM LiCl).
Prior to use, all oligonucleotides were pre-treated by heating at 95° C. for 5 min, then rapidly cooled to 4° C. to favor the intramolecular folding by kinetic trapping. Duplex-DNA ds26 (5′CAA-TCG-GAT-CGA-ATT-CGA-TCC-GAT-TG-3′) (SEQ ID no 3) was prepared by heating this self-complementary strand at 90° C. for 5 min in K^+10 buffer followed by a slow cooling over 6 h.
FRET-melting assay is performed in 96-well plates on real time PCR apparatus 7900HT Fast Real-Time PCR System using the heating ramp as follow: 5 min at 25° C., then increase of 0.5° C. every minute until 95° C. Each experimental condition was tested in duplicated in a volume of 25 μL for each sample. The 96-well plates (Applied Biosystems) were prepared by aliquoting the annealed RNA (24 μL of 0.21 μM solution in K^+10 buffer) into each well, followed by 1 μL of ligand solution (25 μM in K^+10 buffer). For competition experiments, duplex competitors were added to 200 nM quadruplex sequences at final concentrations of 3.0 μM (15 eq) and 10.0 μM (50 eq), with a total reaction volume of 25 μL, with the labeled oligoribonucleotide (0.2 μM) and the ligand (1.0 μM). Measurements were made with excitation at 492 nm and detection at 516 nm. The change in the melting temperature in the presence of 1.0 μM putative ligand, ΔTm (1.0 μM), was calculated from at least two experiments by subtraction of the blank from the averaged melting temperature of each compound (1.0 μM).
The results are shown in FIG. 4 and in Table 2 below (higher ΔTm values indicate higher affinity of the compounds to G4-RNA structure of EBNA1).

C[n+]1ccc(C=NNC(=O)c2cccc(C(=O)NN=Cc3cc[n+](C)c4ccccc34)n2)c2ccccc21.[I-].[I-] [Compound 2a, N′^2, N′^6-Bis[(1-methylquinolinium-4-yl)methylene]pyridine-2,6-dicarbohydrazide iodide]
ΔTm, ligand + 3 μM ds26: 16.1 ± 0.4 °C
ΔTm, ligand + 10 μM ds26: 14.2 ± 0.7 °C
ΔTm, ligand alone: 16.4 ± 0.4 °C
affinity for the G-quadruplex structure of EBNA1 (in words, FRET-melting data): particularly high affinity

C[n+]1ccc(C=NNC(=O)c2ccc3ccc4ccc(C(=O)NN=Cc5cc[n+](C)c6ccccc56)nc4c3n2)c2ccccc21.[I-].[I-] [Compound 11a, N′^2,N′^9-Bis[(1-methylquinolinium-4-yl)methylene]-1,10-phenanthroline-2,9-dicarbohydrazide iodide]
ΔTm, ligand + 3 μM ds26: 21.1 ± 0.6 °C
ΔTm, ligand + 10 μM ds26: 19.3 ± 1.1 °C
ΔTm, ligand alone: 21.5 ± 0.2 °C
affinity for the G-quadruplex structure of EBNA1 (in words, FRET-melting data): particularly high affinity

— patent US11406631B2, “Hydrazone derivatives for preventing or treating EBV-related cancers” (Universite de Bretagne Occidentale, priority 2018, dated 2022)
